Reference: US20040175447A1, “Feeds and fertilizers containing pentacyclic triterpenes” (The Nisshin OilliO, Ltd., priority 2001, published 2004)

System: B-16 melanoma cells
Assay: Evaluation of melanin production-inhibitory effect (cell-whitening degree of cultured B-16 melanoma cells); on Melanin production-inhibitory effect (cell-whitening degree): key: ++: The whitening degree is higher than that observed for the positive control; +: The whitening degree is almost identical to that observed for the positive control; ±: The whitening degree is not higher than that observed for the positive control, but higher than that observed for the control; −: The whitening degree is almost identical to that observed for the control
Assay type: cell-based
Settings: for melanogenesis-inhibitory function relative to that observed when 450 ppm of vitamin C-magnesium phosphate (standard) is added: from Table 1; for Melanin production-inhibitory effect (cell-whitening degree): positive control 450 ppm vitamin C-magnesium phosphate
Method: In the present invention, the melanogenesis-inhibitory effect is evaluated and compared on the basis of the results of tests for examining the melanogenesis-inhibitory function in which B-16 melanoma cells are cultivated, as a primary evaluation. Moreover, a feed is, for instance, practically prepared and its effectiveness in the melanogenesis-inhibition is evaluated as a secondary evaluation. It has been confirmed that the pentacyclic triterpenes whose strong melanogenesis-inhibitory function is confirmed by the cell culture test as the primary evaluation also show an excellent effect in the secondary evaluation test. In addition, it has also been confirmed that there is a correlation between the results obtained in these two evaluation methods.
If the culture system includes a melanogenesis-inhibitory substance during the proliferation thereof, the blackening of the cells is suppressed while the whitening thereof is relatively promoted. Accordingly, the melanogenesis-inhibitory function of the substance can be evaluated by comparing the degree of whitening observed for the substance with the degree of blackening observed for a control. The evaluated results of the melanogenesis-inhibitory effect obtained in this cell culture system clearly indicate that the pentacyclic triterpenes and/or physiologically acceptable salts thereof or derivatives thereof have quite strong melanogenesis-inhibitory effects. For instance, when comparing the effects thereof with that achieved by vitamin C-magnesium phosphate, the melanogenesis-inhibitory effect is about 100 to 200 times, for maslinic acid, about 100 to 200 times, for maslinic acid salts, about 10 to 100 times, for erythrodiol, about 30 to 120 times, for uvaol, about 30 to 120 times, for betulinic acid, about 10 to 100 times, for betulin, about 100 to 200 times, for ethyl maslinate, about 50 to 150 times, for acetylated maslinic acid, about 30 to 120 times, for triethylsilylated maslinic acid, about 50 to 150 times, for stearoyl derivative of ethyl maslinate, about 10 to 100 times, for acetylated erythrodiol, about 10 to 100 times, for acetylated uvaol, about 10 to 100 times, for ethyl betulinate, and about 5 to 50 times, for acetylated betulin, that observed for the vitamin C-magnesium phosphate.
A culture medium was dispensed to wells of a 6-well plate (2 mL/well each), followed by inoculation of a desired amount of B-16 melanoma cells on each well, allowing the wells to stand at 37° C. and 5% CO2 to thus cultivate the cells. On the day subsequent thereto, a candidate sample (pentacyclic triterpenes) solution prepared was added to and mixed with the culture medium containing the cells and the cultivation was continued. The culture medium was replaced with fresh one on the 5th day from the initiation of the cultivation and the prepared sample solution was again added to the wells. On the next day, the culture medium was removed to recover the cells, followed by the washing of these cells with PBS (phosphate buffered physiological saline) and the subsequent evaluation of the cell-whitening degree. In this respect, the melanogenesis-inhibitory function was evaluated by comparing the cell-whitening degree thus obtained with that observed when using 450 ppm of vitamin C-magnesium phosphate as a known whitening agent (a positive control) and that obtained when any candidate sample was not used (control), according to the following evaluation criteria.
The evaluation criteria for the cell-whitening degree are as follows:
Regarding the results listed in Table 1, the whitening degree observed when adding 450 ppm of vitamin C-magnesium phosphate is selected as a standard.

CC1(C)CC[C@]2(C(=O)O)CC[C@]3(C)C(=CC[C@@H]4[C@@]5(C)C[C@@H](O)[C@H](O)C(C)(C)[C@@H]5CC[C@]43C)[C@@H]2C1 [Purified maslinic acid 1, maslinic acid]
concentration required for showing the effect identical to that observed for 450 ppm of vitamin C-magnesium phosphate: 4 ppm
melanogenesis-inhibitory function relative to that observed when 450 ppm of vitamin C-magnesium phosphate (standard) is added: about 110 times

C[C@H]1[C@H](C)CC[C@]2(CO)CC[C@]3(C)C(=CC[C@@H]4[C@@]5(C)CC[C@H](O)C(C)(C)[C@@H]5CC[C@]43C)[C@H]12 [Uvaol]
Melanin production-inhibitory effect (cell-whitening degree) (2 ppm): −
Melanin production-inhibitory effect (cell-whitening degree) (6 ppm): −
Melanin production-inhibitory effect (cell-whitening degree) (10 ppm): +
Melanin production-inhibitory effect (cell-whitening degree) (25 ppm): +
Melanin production-inhibitory effect (cell-whitening degree) (50 ppm): +
melanogenesis-inhibitory function relative to that observed when 450 ppm of vitamin C-magnesium phosphate (standard) is added: about 40 times

CCOC(=O)[C@]12CC[C@@H](C)[C@H](C)[C@H]1C1=CC[C@@H]3[C@@]4(C)CC[C@H](O)C(C)(C)[C@@H]4CC[C@@]3(C)[C@]1(C)CC2 [Compound of Synthesis 6, Ethyl Ursolate]
Melanin production-inhibitory effect (cell-whitening degree) (2 ppm): ±
Melanin production-inhibitory effect (cell-whitening degree) (4 ppm): +
Melanin production-inhibitory effect (cell-whitening degree) (6 ppm): ++
Melanin production-inhibitory effect (cell-whitening degree) (8 ppm): ++
Melanin production-inhibitory effect (cell-whitening degree) (10 ppm): ++
melanogenesis-inhibitory function relative to that observed when 450 ppm of vitamin C-magnesium phosphate (standard) is added: about 110 times
